Positions of bridges follow the written chain, without caps; N, C: chain ends. Non-standard residues stand in square brackets, D forms with d. Residues, ends and D or L forms follow the SMILES beside them. Phe(4-Cl) = N[C@@H](Cc1ccc(Cl)cc1)C(=O)O; 2Nal = N[C@@H](Cc1ccc2ccccc2c1)C(=O)O
Experiments:
Type in all cases: cell-based
[1] = biological target: Sodium channel protein type 1 subunit alpha (Homo sapiens) (UniProt P35498); assay: Activation of human Nav1.1 expressed in HEK293 cells assessed as ratio of compound activation AUC to baseline activation AUC at 0.37 uM at -120 mV holding potential by Qpatch assay
[2] = biological target: Sodium channel protein type 1 subunit alpha (Homo sapiens) (UniProt P35498); assay: Activation of human Nav1.1 expressed in HEK293 cells assessed as ratio of compound activation AUC to baseline activation AUC at 1.11 uM at -120 mV holding potential by Qpatch assay
[3] = biological target: Sodium channel protein type 1 subunit alpha (Homo sapiens) (UniProt P35498); assay: Activation of human Nav1.1 expressed in HEK293 cells assessed as ratio of compound activation AUC to baseline activation AUC at 0.12 uM at -120 mV holding potential by Qpatch assay
[4] = biological target: Sodium channel protein type 1 subunit alpha (Homo sapiens) (UniProt P35498); assay: Activation of human Nav1.1 expressed in HEK293 cells assessed as ratio of compound activation AUC to baseline activation AUC at 3.3 uM at -120 mV holding potential by Qpatch assay
[5] = biological target: Sodium channel protein type 9 subunit alpha (Homo sapiens) (UniProt Q15858); assay: Activation of human Nav1.7 expressed in HEK293 cells assessed as ratio of compound activation AUC to baseline activation AUC at 3.3 uM at -120 mV holding potential by Qpatch assay
[6] = biological target: Sodium channel protein type 3 subunit alpha (Homo sapiens) (UniProt Q9NY46); assay: Activation of human Nav1.3 expressed in CHOK1 cells assessed as ratio of compound activation AUC to baseline activation AUC at 3.3 uM at -120 mV holding potential by Qpatch assay
[7] = biological target: Sodium channel protein type 2 subunit alpha (Homo sapiens) (UniProt Q99250); assay: Activation of human Nav1.2 expressed in CHOK1 cells assessed as ratio of compound activation AUC to baseline activation AUC at 3.3 uM at -120 mV holding potential by Qpatch assay
[8] = biological target: Sodium channel protein type 8 subunit alpha (Homo sapiens) (UniProt Q9UQD0); assay: Activation of human Nav1.6 expressed in HEK293 cells assessed as ratio of compound activation AUC to baseline activation AUC at 3.3 uM at -120 mV holding potential by Qpatch assay
[9] = biological target: Sodium channel protein type 5 subunit alpha (Homo sapiens, UniProt Q14524); assay: Activation of human Nav1.5 expressed in HEK293 cells assessed as ratio of compound activation AUC to baseline activation AUC at 3.3 uM at -120 mV holding potential by Qpatch assay; conditions: hek293, 3.3 µM
[10] = biological target: Sodium channel protein type 4 subunit alpha (Homo sapiens) (UniProt P35499); assay: Activation of human Nav1.4 expressed in HEK293 cells assessed as ratio of compound activation AUC to baseline activation AUC at 3.3 uM at -120 mV holding potential by Qpatch assay
Sequence of Sodium channel protein type 4 subunit alpha (Homo sapiens) (P35499 whole entry, looked up): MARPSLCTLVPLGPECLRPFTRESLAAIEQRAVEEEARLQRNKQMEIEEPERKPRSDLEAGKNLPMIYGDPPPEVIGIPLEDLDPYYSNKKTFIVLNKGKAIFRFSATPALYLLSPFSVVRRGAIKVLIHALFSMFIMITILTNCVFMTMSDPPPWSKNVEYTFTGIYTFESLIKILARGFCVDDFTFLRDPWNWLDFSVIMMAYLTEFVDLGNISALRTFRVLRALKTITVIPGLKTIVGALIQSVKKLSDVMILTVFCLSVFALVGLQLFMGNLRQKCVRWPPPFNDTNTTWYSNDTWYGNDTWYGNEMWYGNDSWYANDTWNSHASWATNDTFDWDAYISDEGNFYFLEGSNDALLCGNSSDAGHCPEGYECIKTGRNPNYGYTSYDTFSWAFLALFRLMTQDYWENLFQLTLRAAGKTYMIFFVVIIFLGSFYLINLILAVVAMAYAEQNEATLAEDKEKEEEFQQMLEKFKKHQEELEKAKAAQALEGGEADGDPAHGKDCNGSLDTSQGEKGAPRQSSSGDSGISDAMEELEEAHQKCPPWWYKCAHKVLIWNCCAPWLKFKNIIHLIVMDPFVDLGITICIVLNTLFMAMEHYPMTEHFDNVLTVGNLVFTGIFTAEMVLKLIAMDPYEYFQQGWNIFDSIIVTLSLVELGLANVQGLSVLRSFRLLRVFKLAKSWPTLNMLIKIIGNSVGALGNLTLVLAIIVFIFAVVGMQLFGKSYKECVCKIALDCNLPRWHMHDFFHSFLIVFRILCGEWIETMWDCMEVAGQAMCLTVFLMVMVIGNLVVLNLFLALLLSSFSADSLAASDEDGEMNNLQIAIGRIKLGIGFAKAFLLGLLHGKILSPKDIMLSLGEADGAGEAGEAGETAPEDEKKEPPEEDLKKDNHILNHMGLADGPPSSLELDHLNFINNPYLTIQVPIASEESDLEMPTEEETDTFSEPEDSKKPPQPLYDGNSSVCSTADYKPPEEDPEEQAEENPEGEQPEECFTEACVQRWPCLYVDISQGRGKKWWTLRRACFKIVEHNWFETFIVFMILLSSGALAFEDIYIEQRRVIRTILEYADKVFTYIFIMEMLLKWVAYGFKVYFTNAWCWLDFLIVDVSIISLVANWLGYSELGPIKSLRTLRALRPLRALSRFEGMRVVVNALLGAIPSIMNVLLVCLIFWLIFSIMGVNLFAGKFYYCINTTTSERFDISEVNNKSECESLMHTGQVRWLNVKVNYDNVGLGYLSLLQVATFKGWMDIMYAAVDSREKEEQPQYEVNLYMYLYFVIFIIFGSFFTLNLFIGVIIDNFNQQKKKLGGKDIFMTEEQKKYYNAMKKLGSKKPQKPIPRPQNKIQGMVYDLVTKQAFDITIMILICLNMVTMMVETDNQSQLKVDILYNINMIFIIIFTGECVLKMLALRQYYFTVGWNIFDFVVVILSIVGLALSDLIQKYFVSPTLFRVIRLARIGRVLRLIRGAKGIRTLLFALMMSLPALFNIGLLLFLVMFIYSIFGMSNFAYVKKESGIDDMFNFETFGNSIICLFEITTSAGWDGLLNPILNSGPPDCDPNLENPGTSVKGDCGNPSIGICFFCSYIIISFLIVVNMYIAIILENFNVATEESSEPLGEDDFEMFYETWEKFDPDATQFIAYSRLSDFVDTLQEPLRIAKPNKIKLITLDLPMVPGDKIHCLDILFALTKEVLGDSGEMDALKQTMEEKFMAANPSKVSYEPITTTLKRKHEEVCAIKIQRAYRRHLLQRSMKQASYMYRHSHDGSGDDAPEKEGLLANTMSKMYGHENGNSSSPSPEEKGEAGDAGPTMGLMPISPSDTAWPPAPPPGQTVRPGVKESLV

Sequence of Sodium channel protein type 2 subunit alpha (Homo sapiens) (Q99250 whole entry, looked up): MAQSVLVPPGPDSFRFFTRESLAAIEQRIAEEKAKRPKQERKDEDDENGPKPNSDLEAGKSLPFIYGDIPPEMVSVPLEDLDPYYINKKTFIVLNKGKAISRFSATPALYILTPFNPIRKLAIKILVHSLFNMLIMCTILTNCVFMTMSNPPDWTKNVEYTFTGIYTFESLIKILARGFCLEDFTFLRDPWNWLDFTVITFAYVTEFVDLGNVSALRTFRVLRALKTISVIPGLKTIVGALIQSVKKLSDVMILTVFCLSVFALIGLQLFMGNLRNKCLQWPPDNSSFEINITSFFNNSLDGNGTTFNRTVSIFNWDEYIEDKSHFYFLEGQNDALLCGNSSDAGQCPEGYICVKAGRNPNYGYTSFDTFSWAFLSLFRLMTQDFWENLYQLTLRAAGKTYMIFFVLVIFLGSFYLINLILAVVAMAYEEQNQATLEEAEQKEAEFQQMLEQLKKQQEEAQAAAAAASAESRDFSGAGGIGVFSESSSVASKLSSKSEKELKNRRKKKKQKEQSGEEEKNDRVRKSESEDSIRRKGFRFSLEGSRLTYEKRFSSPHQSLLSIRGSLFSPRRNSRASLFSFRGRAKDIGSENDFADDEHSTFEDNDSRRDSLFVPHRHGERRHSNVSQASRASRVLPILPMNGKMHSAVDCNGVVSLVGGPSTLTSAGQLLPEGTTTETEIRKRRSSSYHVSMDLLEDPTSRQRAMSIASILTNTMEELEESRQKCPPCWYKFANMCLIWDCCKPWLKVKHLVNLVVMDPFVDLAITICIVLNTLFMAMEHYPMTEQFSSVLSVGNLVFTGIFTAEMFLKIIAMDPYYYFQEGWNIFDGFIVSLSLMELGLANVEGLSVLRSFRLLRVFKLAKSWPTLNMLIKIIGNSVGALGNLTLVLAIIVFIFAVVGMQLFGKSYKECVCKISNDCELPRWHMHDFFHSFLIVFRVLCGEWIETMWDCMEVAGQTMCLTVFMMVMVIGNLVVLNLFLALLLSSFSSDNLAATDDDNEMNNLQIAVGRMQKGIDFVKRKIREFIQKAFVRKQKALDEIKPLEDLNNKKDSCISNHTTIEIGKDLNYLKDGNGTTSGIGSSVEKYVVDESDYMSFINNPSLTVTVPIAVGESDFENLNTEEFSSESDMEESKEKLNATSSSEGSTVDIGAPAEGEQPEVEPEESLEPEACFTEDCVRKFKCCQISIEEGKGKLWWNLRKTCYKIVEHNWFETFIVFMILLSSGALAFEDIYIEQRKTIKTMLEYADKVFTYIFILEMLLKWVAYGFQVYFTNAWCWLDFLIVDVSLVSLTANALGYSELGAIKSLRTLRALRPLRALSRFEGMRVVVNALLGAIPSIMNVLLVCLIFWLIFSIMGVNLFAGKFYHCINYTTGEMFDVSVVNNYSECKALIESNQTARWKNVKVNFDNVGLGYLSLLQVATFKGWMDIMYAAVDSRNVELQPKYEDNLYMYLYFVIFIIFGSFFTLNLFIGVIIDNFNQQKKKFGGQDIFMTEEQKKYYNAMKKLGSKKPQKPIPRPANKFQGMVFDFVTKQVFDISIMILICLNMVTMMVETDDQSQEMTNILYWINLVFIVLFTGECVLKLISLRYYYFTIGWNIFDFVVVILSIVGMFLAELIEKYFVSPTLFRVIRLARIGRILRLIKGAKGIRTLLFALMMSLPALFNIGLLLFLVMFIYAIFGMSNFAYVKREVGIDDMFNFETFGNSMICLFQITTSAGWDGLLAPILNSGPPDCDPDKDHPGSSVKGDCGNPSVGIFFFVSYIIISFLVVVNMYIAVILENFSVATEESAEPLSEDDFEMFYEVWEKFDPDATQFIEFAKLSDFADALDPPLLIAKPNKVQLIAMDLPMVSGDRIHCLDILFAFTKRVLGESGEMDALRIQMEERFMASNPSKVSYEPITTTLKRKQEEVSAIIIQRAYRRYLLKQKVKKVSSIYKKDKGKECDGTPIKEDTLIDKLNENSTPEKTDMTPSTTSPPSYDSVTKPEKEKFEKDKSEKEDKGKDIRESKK

| Compound | Ratio AUC [1] | Ratio AUC [2] | Ratio AUC [3] | Ratio AUC [4] | Ratio AUC [5] | Ratio AUC [6] | Ratio AUC [7] | Ratio AUC [8] | Ratio AUC [9] | Ratio AUC [10] |
| --- | --- | --- | --- | --- | --- | --- | --- | --- | --- | --- |
| CC[C@H](C)[C@H](NC(=O)[C@H](CCCCN)NC(=O)[C@@H](NC(=O)[C@@H](N)CC(=O)O)[C@@H](C)CC)C(=O)NCC(=O)N[C@@H](CC(C)C)C(=O)N[C@@H](Cc1ccccc1)C(=O)N[C@@H](CCCNC(=N)N)C(=O)N[C@@H](CCC(N)=O)C(=O)N[C@@H](CC(C)C)C(=O)N[C@@H](CO)C(=O)N[C@@H](CCCNC(=N)N)C(=O)N[C@@H](CC(C)C)C(N)=O (H-DIKIGLFRQLSRL-NH2) | 1.1 | 1.1 | 1 | 1.1 |  |  |  |  |  |  |
| CC[C@H](C)[C@H](NC(=O)[C@H](CCCCN)NC(=O)[C@@H](NC(=O)[C@@H](N)CCCNC(=N)N)[C@@H](C)CC)C(=O)N[C@H](C)C(=O)N[C@@H](CC(C)C)C(=O)N[C@@H](Cc1ccccc1)C(=O)N[C@@H](CC(=O)O)C(=O)N[C@@H](CCC(N)=O)C(=O)N[C@@H](CC(C)C)C(=O)N[C@@H](CO)C(=O)N[C@@H](CCCNC(=N)N)C(=O)N[C@@H](CC(C)C)C(N)=O | 0.1 | 1 | 0.1 | 1.1 |  |  |  |  |  |  |
| CC[C@H](C)[C@H](NC(=O)[C@H](CCCNC(=N)N)NC(=O)[C@@H](NC(=O)[C@@H](N)CCCNC(=N)N)[C@@H](C)CC)C(=O)NCC(=O)N[C@@H](CC(C)C)C(=O)N[C@@H](Cc1ccccc1)C(=O)N[C@@H](CC(=O)O)C(=O)N[C@@H](CCC(N)=O)C(=O)N[C@@H](CC(C)C)C(=O)N[C@@H](CC(C)C)C(=O)N[C@@H](CCCNC(=N)N)C(=O)N[C@@H](CC(C)C)C(N)=O (H-RIRIGLFDQLLRL-NH2) | 1.6 | 2.9 | 1.1 | 5.8 |  |  |  |  |  |  |
| CC[C@H](C)[C@H](NC(=O)[C@H](CCCNC(=N)N)NC(=O)[C@@H](NC(=O)[C@@H](N)CCCNC(=N)N)[C@@H](C)CC)C(=O)NCC(=O)N[C@@H](CC(C)C)C(=O)N[C@@H](Cc1ccccc1)C(=O)N[C@@H](CC(=O)O)C(=O)N[C@@H](CCC(N)=O)C(=O)N[C@@H](CC(C)C)C(=O)N[C@@H](Cc1ccc(O)cc1)C(=O)N[C@@H](CCCNC(=N)N)C(=O)N[C@@H](CC(C)C)C(N)=O (H-RIRIGLFDQLYRL-NH2) | 1.1 | 1.5 | 1 | 2 |  |  |  |  |  |  |
| CC[C@H](C)[C@@H]1NC(=O)[C@H](CCCCN)NC(=O)[C@H]([C@@H](C)CC)NC(=O)[C@@H](N)CSSC[C@@H](C(=O)N[C@@H](CCC(N)=O)C(=O)N[C@@H](CC(C)C)C(=O)N[C@@H](CO)C(=O)N[C@@H](CCCNC(=N)N)C(=O)N[C@@H](CC(C)C)C(N)=O)NC(=O)[C@H](Cc2ccccc2)NC(=O)[C@H](CC(C)C)NC(=O)CNC1=O (H-CIKIGLFCQLSRL-NH2; disulfide 1-8) | 1.1 | 1 | 1 | 1.1 |  |  |  |  |  |  |
| CC[C@H](C)[C@@H]1NC(=O)[C@@H](NC(=O)[C@@H](NC(=O)[C@@H](N)CCCNC(=N)N)[C@@H](C)CC)CSSC[C@@H](C(=O)N[C@@H](CCC(N)=O)C(=O)N[C@@H](CC(C)C)C(=O)N[C@@H](CO)C(=O)N[C@@H](CCCNC(=N)N)C(=O)N[C@@H](CC(C)C)C(N)=O)NC(=O)[C@H](Cc2ccccc2)NC(=O)[C@H](CC(C)C)NC(=O)CNC1=O (H-RICIGLFCQLSRL-NH2; disulfide 3-8) | 0.9 | 0.9 | 1.1 | 1 |  |  |  |  |  |  |
| CC[C@H](C)[C@H](NC(=O)[C@@H](N)CCCNC(=N)N)C(=O)N[C@@H](CCCCN)C(=O)N[C@H](C(=O)N1CCC[C@@H]1C(=O)N[C@@H](CC(C)C)C(=O)N[C@@H](Cc1ccccc1)C(=O)N[C@@H](CC(=O)O)C(=O)N[C@@H](CCC(N)=O)C(=O)N[C@@H](CC(C)C)C(=O)N[C@@H](CO)C(=O)N[C@@H](CCCNC(=N)N)C(=O)N[C@@H](CC(C)C)C(N)=O)[C@@H](C)CC | 1.1 | 1.1 | 1 | 1.1 |  |  |  |  |  |  |
| CC[C@H](C)[C@H](NC(=O)[C@H](CCCNC(=N)N)NC(=O)[C@@H](NC(=O)[C@@H](N)CCCNC(=N)N)[C@@H](C)CC)C(=O)NCC(=O)N[C@@H](CC(C)C)C(=O)N[C@@H](Cc1ccccc1)C(=O)N[C@@H](CC(=O)O)C(=O)N[C@@H](CCC(N)=O)C(=O)N[C@@H](CC(C)C)C(=O)N[C@@H](Cc1ccccc1)C(=O)N[C@@H](CCCNC(=N)N)C(=O)N[C@@H](CC(C)C)C(N)=O (H-RIRIGLFDQLFRL-NH2) | 1.1 | 1.6 | 1 | 2.7 |  |  |  |  |  |  |
| CC[C@H](C)[C@H](NC(=O)[C@H](CCCCN)NC(=O)[C@H](CC(C)C)NC(=O)[C@@H](N)CCCNC(=N)N)C(=O)NCC(=O)N[C@@H](CC(C)C)C(=O)N[C@@H](Cc1ccccc1)C(=O)N[C@@H](CC(=O)O)C(=O)N[C@@H](CCC(N)=O)C(=O)N[C@@H](CC(C)C)C(=O)N[C@@H](CO)C(=O)N[C@@H](CCCNC(=N)N)C(=O)N[C@@H](CC(C)C)C(N)=O (H-RLKIGLFDQLSRL-NH2) | 1 | 1 | 1 | 1 |  |  |  |  |  |  |
| CC[C@H](C)[C@H](NC(=O)[C@H](CCCCN)NC(=O)[C@@H](NC(=O)[C@@H](N)CCCNC(=N)N)[C@@H](C)CC)C(=O)NCC(=O)N[C@@H](CC(C)C)C(=O)N[C@@H](Cc1ccc2ccccc2c1)C(=O)N[C@@H](CC(=O)O)C(=O)N[C@@H](CCC(N)=O)C(=O)N[C@@H](CC(C)C)C(=O)N[C@@H](CO)C(=O)N[C@@H](CCCNC(=N)N)C(=O)N[C@@H](CC(C)C)C(N)=O (H-RIKIGL[2Nal]DQLSRL-NH2) | 2.1 | 5 | 1.3 | 10.7 | 4 | 1.9 | 2.4 | 6.7 | 4 | 1.6 |
| CC[C@H](C)[C@H](NC(=O)[C@H](CCCNC(=N)N)NC(=O)[C@@H](NC(=O)[C@@H](N)CCCNC(=N)N)[C@@H](C)CC)C(=O)NCC(=O)N[C@@H](CC(C)C)C(=O)N[C@@H](Cc1ccccc1)C(=O)N[C@@H](CC(=O)O)C(=O)N[C@@H](CCC(N)=O)C(=O)N[C@@H](CC(C)C)C(=O)N[C@@H](Cc1c[nH]c2ccccc12)C(=O)N[C@@H](CCCNC(=N)N)C(=O)N[C@@H](CC(C)C)C(N)=O (H-RIRIGLFDQLWRL-NH2) | 1.6 | 2.8 | 1.2 | 4.3 |  |  |  |  |  |  |
| CC[C@H](C)[C@H](NC(=O)[C@H](CC(=O)O)NC(=O)[C@@H](NC(=O)[C@@H](N)CCCNC(=N)N)[C@@H](C)CC)C(=O)NCC(=O)N[C@@H](CC(C)C)C(=O)N[C@@H](Cc1ccccc1)C(=O)N[C@@H](CCCCN)C(=O)N[C@@H](CCC(N)=O)C(=O)N[C@@H](CC(C)C)C(=O)N[C@@H](CO)C(=O)N[C@@H](CCCNC(=N)N)C(=O)N[C@@H](CC(C)C)C(N)=O (H-RIDIGLFKQLSRL-NH2) | 1.1 | 1.1 | 1.1 | 1.1 |  |  |  |  |  |  |
| CC[C@H](C)[C@H](NC(=O)[C@H](CCCNC(=N)N)NC(=O)[C@@H](NC(=O)[C@@H](N)CCCNC(=N)N)[C@@H](C)CC)C(=O)NCC(=O)N[C@@H](CC(C)C)C(=O)N[C@@H](Cc1ccccc1)C(=O)N[C@@H](CC(=O)O)C(=O)N[C@@H](CCC(N)=O)C(=O)N[C@@H](CC(C)C)C(=O)N[C@@H](Cc1ccc(Cl)cc1)C(=O)N[C@@H](CCCNC(=N)N)C(=O)N[C@@H](CC(C)C)C(N)=O (H-RIRIGLFDQL[Phe(4-Cl)]RL-NH2) | 1.2 | 1.8 | 1.1 | 3.5 |  |  |  |  |  |  |
| CC[C@H](C)[C@H](NC(=O)[C@H](CCCCN)NC(=O)[C@@H](NC(=O)[C@@H](N)CCCNC(=N)N)[C@@H](C)CC)C(=O)NCC(=O)N[C@@H](CC(C)C)C(=O)N[C@@H](Cc1c[nH]c2ccccc12)C(=O)N[C@@H](CC(=O)O)C(=O)N[C@@H](CCC(N)=O)C(=O)N[C@@H](CC(C)C)C(=O)N[C@@H](CO)C(=O)N[C@@H](CCCNC(=N)N)C(=O)N[C@@H](CC(C)C)C(N)=O (H-RIKIGLWDQLSRL-NH2) | 0.9 | 0.9 | 1 | 1 |  |  |  |  |  |  |
| CC[C@H](C)[C@H](NC(=O)[C@H](CCCNC(=N)N)NC(=O)[C@@H](NC(=O)[C@@H](N)CCCNC(=N)N)[C@@H](C)CC)C(=O)NCC(=O)N[C@@H](CC(C)C)C(=O)N[C@@H](Cc1ccccc1)C(=O)N[C@@H](CC(=O)O)C(=O)N[C@@H](CCC(N)=O)C(=O)N[C@@H](CC(C)C)C(=O)N[C@@H](CO)C(=O)N[C@@H](CCCNC(=N)N)C(=O)N[C@@H](CC(C)C)C(N)=O (H-RIRIGLFDQLSRL-NH2) | 1.1 | 1.3 | 1 | 2 |  |  |  |  |  |  |

Reference: ChEMBL document CHEMBL4342489, “Structure-Activity Relationship Evaluation of Wasp Toxin β-PMTX Leads to Analogs with Superior Activity for Human Neuronal Sodium Channels” (ACS Med Chem Lett, 2020)
